{"source": "patent US20210387983A1", "about": "“CRYSTALLINE ALK5 INHIBITORS AND USES THEREOF” (THERAVANCE BIOPHARMA R&D IP, LLC, priority 2020, published 2021)", "key": {"[1]": {"system": "syngeneic cancer models (4T1 cells, CT26 cells)", "assay": "Efficacy study in syngeneic cancer model (4T1 or CT26 cells)", "type": "in vivo, BALB/c mice", "source_text": "The compound of Formula I is expected to suppress tumor growth in syngeneic cancer models when administered alone or in combination with an immunotherapeutic agent. Six- to 8-week old BALB/c mice are used for in vivo efficacy studies in accordance with IACUC guidelines. Commercially available 4T1 cells (0.5-2.0×10^4 cells/mouse) are implanted subcutaneously into the right flanks of BALB/c mice. When the tumor reaches a palpable size of approximately 8-10 mm in diameter, the primary tumors are surgically removed, and the mice are randomly assigned to vehicle control or compound treatment groups. Alternatively, CT26 cells (0.5-2.0×10^4 cells/mouse) are injected intravenously into BALB/c mice to generate the cancer model. […]\nBody weight is measured twice weekly. Following 2- to 4-weeks of treatment, the lung and liver of each animal is harvested, and the number of metastatic cells in each tissue sample determined using a clonogenic metastasis assay. […]"}, "[2]": {"system": "DSS-induced intestinal fibrosis", "assay": "Efficacy study in murine DSS-induced intestinal fibrosis model", "type": "in vivo, C57BL/6J mice", "conditions": "oral gavage following the second of the 3 cycles of DSS; sacrifice at 6, 9 or 12 weeks", "description": "The compound of Formula I is expected to slow, halt or reverse the progression of intestinal fibrosis in a murine colitis model. Six to 8-week old male C57BL/6J mice are tagged and weighed. The drinking water of the animals is treated with 2.5% dextran sulfate sodium (DSS) for 7 days to induce acute colitis, followed by 2 days of normal drinking water. Three, 3-week cycles of 2.5% DSS treatment (1 week of 2.5% DSS in water; 2 weeks of normal water) are then completed to induce intestinal fibrosis. Following the second of the 3 cycles of DSS administration, mice are treated with either vehicle control or the compound of Formula I at an appropriate amount and frequency via oral gavage (e.g., once daily). Animals are sacrificed at either 6, 9 or 12 weeks after the first DSS cycle, then distal, mid and proximal sections of the colon harvested for histologic analysis, RNA extraction and cytokine measurement."}, "[3]": {"target": "T1, recombinant human ALK5 (TGF-βR1) protein (Homo sapiens, UniProt P36897)", "T1 construct": "purchased Life Technologies PR9075A", "T1 sequence (P36897 34-503)": "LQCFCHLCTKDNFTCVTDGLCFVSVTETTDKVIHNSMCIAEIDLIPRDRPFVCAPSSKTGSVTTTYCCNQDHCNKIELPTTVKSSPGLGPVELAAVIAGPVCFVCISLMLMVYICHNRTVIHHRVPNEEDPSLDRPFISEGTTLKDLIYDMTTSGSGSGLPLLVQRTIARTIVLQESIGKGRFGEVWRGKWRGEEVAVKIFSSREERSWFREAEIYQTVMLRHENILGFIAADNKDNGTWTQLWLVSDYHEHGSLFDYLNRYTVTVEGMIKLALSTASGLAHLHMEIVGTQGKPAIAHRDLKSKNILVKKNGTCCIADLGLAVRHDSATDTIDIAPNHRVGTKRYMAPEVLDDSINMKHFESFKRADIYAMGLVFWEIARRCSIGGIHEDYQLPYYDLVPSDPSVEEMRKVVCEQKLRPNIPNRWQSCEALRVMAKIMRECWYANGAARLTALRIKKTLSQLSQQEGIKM", "assay": "Biochemical ALK5 (TGF-βR1) assay to measure pKi (LANCE Ultra ULight kinase assay)", "conditions": "apparent pKi, converted from pIC50 using the Cheng-Prusoff equation", "description": "The assays were performed in a 384-well plate (24 columns×16 wells/rows). An Echo®550 Liquid Handler (Labcyte) was used to prepare various intermediate concentrations of the compound of Formula I in 100% DMSO. From the intermediate concentrations, a range of concentrations (from 10 μM to […] corresponding to volumes up to 105 nL) were prepared and ejected into a final assay plate to be used to create individual dose response curves. To a separate column within the assay plate, 105 nL of DMSO in each well was used to establish a maximum assay signal. […]\nNext, 2 μL of 125 μM ATP (5× final, 125 μM ATP prepared in assay buffer with 2 mM DTT) was added to the incubated mixtures, covered with a MicroClime® Environmental Lid (Product No. LLS-0310, Labcyte) and immediately transferred to 37° C. […] The plate was then read on a Perkin Elmer EnVision Plate Reader using europium specific reader settings with excitation and emission wavelengths set to 320 or 340 nm and 665 nm, respectively.\nFor dose-response analyses, percent inhibition versus compound concentrations were plotted, and pIC50 values were determined from a 4-parameter robust fit model with GraphPad Prism V5 Software (GraphPad Software, Inc., La Jolla, Calif.). […] Results were expressed as pIC50 (negative logarithm of IC50) and subsequently converted to pKi (negative logarithm of dissociate constant, Ki) using the Cheng-Prusoff equation. […]"}}, "data": [{"smiles": "C[C@@H]1CN(CCNc2cnc3ccc(-c4nc[nH]c4-c4cc(Cl)ccc4F)nc3c2)C[C@H](C)N1", "note": "[compound of Formula I, 6-(5-(5-chloro-2-fluorophenyl)-1H-imidazol-4-yl)-N-(2-((3S,5R)-3,5-dimethylpiperazin-1-yl)ethyl)-1,5-naphthyridin-3-amine]", "values": [{"measurement": "lung tumor burden in combination with an immunotherapeutic agent", "setting": "[1]; combination with immunotherapeutic agent (e.g., pembrolizumab or durvalumab), relative to either single agent alone", "result": "increased reduction in lung tumor burden"}, {"measurement": "lung tumor burden", "setting": "[1]; compound alone, oral aspiration or intranasally, 2- to 4-weeks of treatment", "result": "reduction in lung tumor burden"}, {"measurement": "intestinal fibrosis", "setting": "[2]", "result": "slow, halt or reverse intestinal fibrosis"}, {"measurement": "Ki", "setting": "[3]", "result": "0.0398 to 0.316", "unit": "nM"}]}]}
